Experimental data reported in patent publication US20040171489A1, “Synergistic active compound combinations for controlling harmful plants” (priority 1998, published 2004).
Counter-ions that a name gives are not always drawn.

Experiments:
Monochoria vaginalis = assay: Example 22 field trial, 2-leaf stage: herbicidal effect; type: in vivo; settings: 14 days after application
Experimental: (§1) The herbicidal efficacy of the active compounds or active compound mixtures was scored visually using the treated plots in comparison to untreated control plots. The damage and development of all above-ground parts of the plants were recorded. Scoring was carried out using a percentage scale (100% effect=all plants killed; 50% effect=50% of the plants and the green parts of the plants killed; 0% effect=no noticeable effect=like control plot. The scores of in each case 4 plots were averaged.
(§2) If the observed activity values already exceed the formal sum of the values for the trials with the individual applications, they also exceed the expected value according to Colby which is calculated using the following formula and which is likewise considered to be an indication of synergism (cf. S. R. Colby; in Weeds 15 (1967) p. 20 to 22):
(§3) Crop plants were grown outdoors on plots under natural outdoor conditions, and seeds or rhizome pieces of typical harmful plants were laid out or the natural weed growth was utilized. Treatment with the compositions according to the invention was carried out after the harmful plants had emerged and the crop plants were, generally, at the 2- to 4-leaf stage; in some cases (as stated), application of individual active compounds or active compound combinations was carried out pre-emergence (cf. Section 1) or post-emergence (cf. Section 2) or as a sequential treatment partly pre-emergence and/or post-emergence. After the application, for example 2, 4, 6 and 8 weeks after the application, the effect of the preparations was scored visually by comparison with untreated controls (cf. scoring in Section 1). In the field trial as well, the compositions according to the invention have synergistic herbicidal activity against a broad spectrum of economically important weed grasses and broad-leaved weeds. […] Moreover, the effects in essential phases of the scoring period were above the expected values according to Colby, also indicating synergism. In contrast, the crop plants were, as a consequence of the treatments with the herbicidal compositions, damaged only to a small degree, if at all.

Oryza sativa (rice) = assay: Example 22 field trial, 2-leaf stage: crop damage; type: in vivo
Experimental: as §1, §2, §3

summer wheat = assay: Example 13 field trial, 2- to 4-leaf stage: crop damage; type: in vivo, Triticum aestivum
Experimental: as §1, §2, §3

Sorghum verticilliflorum = assay: Example 13 field trial, 2- to 4-leaf stage: herbicidal effect; type: in vivo; settings: 17 days after application
Experimental: as §1, §2, §3

winter barley [1] = assay: Example 5 field trial, 2-4 leaf stage: crop damage; type: in vivo, Hordeum vulgare; settings: winter barley (Hordeum vulgare), in vivo, 28 days
Experimental: as §1, §2
as §3, with “In contrast, the crop plants were, as a consequence of the treatments with the herbicidal compositions, damaged only to a small degree, if at all.” left out

Papaver rhoeas [2] = assay: Example 5 field trial, 2-4 leaf stage: herbicidal effect; type: in vivo; settings: 2.5 g of ai/ha; 28 days after application
Experimental: as §1, §2
as §3, with “In contrast, the crop plants were, as a consequence of the treatments with the herbicidal compositions, damaged only to a small degree, if at all.” left out

[3] = tested on: corn which is glufosinate-ammonium-resistant; assay: Example 18 field trial, 3-leaf stage: crop damage; type: in vivo, Corn (LL); settings: 31 days after application
Experimental: The damage and development of all above-ground parts of the plants were recorded.
Crop plants were grown outdoors on plots under natural outdoor conditions, and seeds or rhizome pieces of typical harmful plants were laid out or the natural weed growth was utilized.

Elusine indica = assay: Example 18 field trial, 3-leaf stage: herbicidal effect; type: in vivo; settings: 31 days after application
Experimental: as §1, §2
as §3, with “In contrast, the crop plants were, as a consequence of the treatments with the herbicidal compositions, damaged only to a small degree, if at all.” left out

winter barley [4] = assay: Example 9 field trials, application 1-3 leaf stage broad-leaved weeds: crop damage; type: in vivo, Hordeum vulgare; settings: winter barley (Hordeum vulgare), in vivo
Experimental: as §1, §2
as §3, with “In contrast, the crop plants were, as a consequence of the treatments with the herbicidal compositions, damaged only to a small degree, if at all.” left out

Capsella bursa-pastoris = assay: Example 9 field trials, application 1-3 leaf stage broad-leaved weeds: herbicidal effect; type: in vivo; settings: 2000 g of ai/ha; 120 to 160 days after application
Experimental: as §1, §2, §3

Alopecurus myosuroides = assay: as above; type: in vivo; settings: 2000 g of ai/ha; 120 to 160 days after application
Experimental: as §1, §2, §3

Papaver rhoeas [5] = assay: Example 1 field trial, 2-4 leaf stage: herbicidal effect; type: in vivo; settings: 1000 g of ai/ha; 28 days after application
Experimental: as §1, §2, §3

winter barley [6] = assay: Example 1 field trial, 2-4 leaf stage: crop damage; type: in vivo, Hordeum vulgare; settings: winter barley (Hordeum vulgare), in vivo, 28 days
Experimental: as §1, §2, §3

winter wheat [7] = assay: Example 9 field trials, application 1-3 leaf stage broad-leaved weeds: crop damage; type: in vivo, Triticum aestivum; settings: winter wheat (Triticum aestivum), in vivo
Experimental: as §1, §2
as §3, with “In contrast, the crop plants were, as a consequence of the treatments with the herbicidal compositions, damaged only to a small degree, if at all.” left out

winter wheat [8] = assay: Example 10 pre-emergence application, fall: crop damage; type: in vivo, Triticum aestivum; settings: winter wheat (Triticum aestivum), in vivo, 169 days
Excerpt: (§4) Seeds or rhizome pieces of monocotyledonous and dicotyledonous weed plants are placed in sandy loam soil in pots and covered with soil. The compositions, formulated in the form of concentrated aqueous solutions, wettable powders or emulsion concentrates, are then applied to the surface of the soil cover as aqueous solution, suspension or emulsion at an application rate of 600 to 800 l of water/ha (converted), in various dosages. After the treatment, the pots are placed in a greenhouse and kept under good growth conditions for the weeds. After the test plants have emerged, the damage to the plants or the negative effects on the emergence is scored visually after a test period of 3 to 4 weeks by comparison with untreated controls. As shown by the test results, the compositions according to the invention have good herbicidal pre-emergence activity against a broad spectrum of weed grasses and broad-leaved weeds.
as §1, §2, §3

Galium aparine = assay: Example 10 pre-emergence application, fall: herbicidal effect; type: in vivo; settings: 1000 g of ai/ha; 169 days after application
Excerpt: as §4, §1, §2, §3

Zea mays (corn) = assay: Example 17 field trial, pre-emergence: crop damage; type: in vivo; settings: in vivo
Excerpt: as §4
The herbicidal efficacy of the active compounds or active compound mixtures was scored visually using the treated plots in comparison to untreated control plots. The damage and development of all above-ground parts of the plants were recorded. […]
as §2
Crop plants were grown outdoors on plots under natural outdoor conditions, and seeds or rhizome pieces of typical harmful plants were laid out or the natural weed growth was utilized. […] After the application, for example 2, 4, 6 and 8 weeks after the application, the effect of the preparations was scored visually by comparison with untreated controls (cf. scoring in Section 1). […]

Setaria faberi = assay: Example 17 field trial, pre-emergence: herbicidal effect; type: in vivo; settings: 16 days after application
Excerpt: as §4, §1, §2, §3

Ipomoea hederacea = assay: as above; type: in vivo; settings: 16 days after application
Excerpt: as §4, §1, §2, §3

winter wheat [9] = assay: Example 8 field trial, 4-leaf stage: crop damage; type: in vivo, Triticum aestivum; settings: 28 days after application
Experimental: as §1, §2
as §3, with “In contrast, the crop plants were, as a consequence of the treatments with the herbicidal compositions, damaged only to a small degree, if at all.” left out

Veronica hederofolia = assay: Example 8 field trial, 4-leaf stage: herbicidal effect; type: in vivo; settings: 28 days after application
Experimental: as §1, §2
as §3, with “In contrast, the crop plants were, as a consequence of the treatments with the herbicidal compositions, damaged only to a small degree, if at all.” left out

CCOC(=O)C(Cl)Cc1cc(-n2nc(C)n(C(F)F)c2=O)c(F)cc1Cl (stereo not shown) [(B2.6.3), carfentrazone-ethyl, reference compound]
herbicidal effect, MOOVA (Monochoria vaginalis; 60 g of ai/ha): 47%
damage, ORYSA (Oryza sativa (rice); 60 g of ai/ha, 14 days after application): 0%

N#Cc1cc(Br)c(O)c(Br)c1 [(B2.3.1), bromoxynil]
damage, TRZAS (summer wheat; 225 g of ai/ha, 17 days after application): 0%
damage, TRZAS (summer wheat; 450 g of ai/ha, 17 days after application): 0%
herbicidal effect, SORVE (Sorghum verticilliflorum; 225 g of ai/ha): 0%
herbicidal effect, SORVE (Sorghum verticilliflorum; 450 g of ai/ha): 25%

COc1nc(C)nc(NC(=O)NS(=O)(=O)c2cc(I)ccc2C(=O)O)n1 [(B3.1.4), iodosulfuron-methyl sodium salt, reference compound]
damage, HORVW (winter barley [1]): 0%
herbicidal effect, PAPRH (Papaver rhoeas [2]): 0%

CP(=O)(O)CCC(N)C(=O)O (stereo not shown) [(B4.1.2), glufosinate monoammonium salt]
damage, Corn (LL) ([3]; 300 g of ai/ha): 0%
damage, Corn (LL) ([3]; 600 g of ai/ha): 0%
herbicidal effect, ELEIN (Elusine indica; 300 g of ai/ha): 55%
herbicidal effect, ELEIN (Elusine indica; 600 g of ai/ha): 78%

CC(C)c1ccc(NC(=O)N(C)C)cc1 [(B1.1.1), isoproturon, reference compound]
damage, HORVW (winter barley [4]): 0%
herbicidal effect, CAPBP (Capsella bursa-pastoris): 0%
herbicidal effect, ALOMY (Alopecurus myosuroides): 0%
herbicidal effect, PAPRH (Papaver rhoeas [5]): 15%
damage, HORVW (winter barley [6]): 0%
damage, TRZAW (winter wheat [7]): 0%
damage, TRZAW (winter wheat [8]): 0%
herbicidal effect, GALAP (Galium aparine): 15%

CS(=O)(=O)c1cc(C(F)(F)F)ccc1C(=O)c1cnoc1C1CC1 [(B3.4.5), isoxaflutole, reference compound]
damage, ZEAMA (Zea mays (corn)): 0%
herbicidal effect, SETFA (Setaria faberi; 105 g of ai/ha): 90%
herbicidal effect, SETFA (Setaria faberi; 210 g of ai/ha): 93%
herbicidal effect, IPOHE (Ipomoea hederacea; 105 g of ai/ha): 87%
herbicidal effect, IPOHE (Ipomoea hederacea; 210 g of ai/ha): 85%

COP(=S)(OC)SCC(=O)N(c1ccc(Cl)cc1)C(C)(C)C [(B1.6.5), anilofos, reference compound]
herbicidal effect, MOOVA (Monochoria vaginalis; 250 g of ai/ha): 95%
damage, ORYSA (Oryza sativa (rice); 250 g of ai/ha, 14 days after application): 5%

C#CCN(C)c1c(C#N)cnn1-c1nn2c(c1Cl)CCCC2 [(B1.6.14), reference compound]
herbicidal effect, MOOVA (Monochoria vaginalis; 25 g of ai/ha): 82%
damage, ORYSA (Oryza sativa (rice); in vivo): 0%

COc1cc(Cl)cc(OCC(C)Nc2nc(N)nc(C(C)(C)F)n2)c1 (stereo not shown) [(A5), 4-amino-6-(1-fluoro-1-methylethyl)-2-[2-(3-chloro-5-methoxyphenoxy)-1-methylethylamino]-1,3,5-triazine]
damage, TRZAW (winter wheat [9]; 25 g of ai/ha): 0%
damage, TRZAW (winter wheat [9]; 50 g of ai/ha): 0%
damage, TRZAW (winter wheat [9]; 100 g of ai/ha): 0%
herbicidal effect, VERHE (Veronica hederofolia; 25 g of ai/ha): 14%
herbicidal effect, VERHE (Veronica hederofolia; 50 g of ai/ha): 22%
herbicidal effect, VERHE (Veronica hederofolia; 100 g of ai/ha): 34%

COC(=O)c1ccccc1S(=O)(=O)NC(=O)N(C)c1nc(C)nc(OC)n1 [(B2.1.1), tribenuron-methyl]
damage, TRZAS (summer wheat; in vivo): 0%
herbicidal effect, SORVE (Sorghum verticilliflorum; 12.5 g of ai/ha): 0%
